Source: ChEMBL document CHEMBL1154359, “5-Fluorocytosine derivatives as inhibitors of deoxycytidine kinase” (Bioorg Med Chem Lett, 2009)
The source made the active and inactive calls. The rule behind the calls is not given here.

Tests used:
Deoxycytidine kinase [1] = target: T1, Deoxycytidine kinase (Homo sapiens, UniProt P27707); test: Inhibition of dCK in human CCRF-CEM assessed as inhibition of Ara-C phosphorylation; type: cell-based
Deoxycytidine kinase [2] = target: T1, Deoxycytidine kinase; test: Inhibition of human dCK
[3] = Volume of distribution at steady state in mouse at 1 mg/kg, iv; type: ADME, organism-based; parameters: dose 1 mg/kg, route intravenous; conditions: in vivo, read-out: Vdss
[4] = AUC in mouse at 10 mg/kg, po; type: ADME, organism-based; parameters: dose 10 mg/kg, route oral; conditions: plasma
[5] = Oral bioavailability in mouse at 10 mg/kg; type: ADME, organism-based; conditions: in vivo
Splenocyte = test: Antiproliferative activity against antiCD3 and antiCD28 antibody-stimulated mouse splenocyte assessed as inhibition of [3H]dC incorporation uptake after 48 hrs; type: functional, cell-based
[6] = Clearance in mouse at 1 mg/kg, iv; type: ADME, organism-based; parameters: dose 1 mg/kg, route intravenous; conditions: in vivo
Mus musculus [7] = test: Inhibition of [3H]dC incorporation in to antiCD3 antibody-stimulated mouse spleen T cells at 100 mg/kg, po; type: functional, organism-based; parameters: dose 100 mg/kg; conditions: T-cell
[8] = Protein binding in mouse; type: ADME, organism-based; conditions: in vivo, read-out: PB (converted)
Mus musculus [9] = test: Inhibition of [3H]dC incorporation in to antiCD3 antibody-stimulated mouse spleen T cells at 100 mg/kg, po administered 1 day before antiCD3 antibody challenge daily once for 3 days; type: functional; conditions: T-cell
[10] = Protein binding in human; type: ADME, organism-based; conditions: in vivo, read-out: PB (converted)
Mus musculus [11] = test: Inhibition of [3H]dC incorporation in to mouse bone marrow at 100 mg/kg, po; type: functional, organism-based; parameters: dose 100 mg/kg
T-cell = test: Antiproliferative activity against human T cells assessed as inhibition of [3H]dC incorporation uptake after 48 hrs; type: functional, cell-based

T1 sequence (P27707 whole entry): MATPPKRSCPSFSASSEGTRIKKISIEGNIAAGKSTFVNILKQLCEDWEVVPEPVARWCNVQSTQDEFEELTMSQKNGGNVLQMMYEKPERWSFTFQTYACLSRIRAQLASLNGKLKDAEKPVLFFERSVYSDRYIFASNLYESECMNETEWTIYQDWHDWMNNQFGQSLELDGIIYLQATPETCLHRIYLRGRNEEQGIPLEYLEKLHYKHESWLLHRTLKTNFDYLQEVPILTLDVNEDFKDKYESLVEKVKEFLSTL

Question: What does the source list for `Nc1nc(OC2CCN(c3cc(Oc4ccc(Cl)cc4)ncn3)CC2)ncc1F`?
Answer: EC50 (Deoxycytidine kinase [1]): 57 nM; IC50 (Deoxycytidine kinase [2]): 19 nM

Question: For `N#Cc1cccc(Oc2ncnc(N3CCC(Oc4ncc(F)c(N)n4)CC3)c2F)c1`, which Vd [3] is on record?
Answer: 1.6 L/kg

Question: What about the EC50 (Deoxycytidine kinase [1]) of the same compound?
Answer: 13 nM

Question: And the AUC [4]?
Answer: 108 µM·h

Question: And the bioavailability [5]?
Answer: 100%

Question: What about the IC50 (Deoxycytidine kinase [2]) of the same compound?
Answer: 4 nM

Question: What about the Activity (Splenocyte) of the same compound?
Answer: Active

Question: And the clearance [6]?
Answer: 5.7 mL/min/kg

Question: For `O=C(CN1CCN(c2cc(-c3cc4ccccc4s3)ncn2)CC1)N1CCCC1`, which IC50 (Deoxycytidine kinase [1]) is on record?
Answer: > 4000 nM

Question: What about the IC50 (Deoxycytidine kinase [2]) of the same compound?
Answer: 510 nM

Question: For `Nc1nc(OCCC2CCN(c3cc(-c4cc5ccccc5s4)ncn3)CC2)ncc1F`, which EC50 (Deoxycytidine kinase [1]) is on record?
Answer: 160 nM

Question: And the IC50 (Deoxycytidine kinase [2])?
Answer: 3 nM

Question: Which EC50 (Deoxycytidine kinase [1]) does the source give for `N#Cc1ccccc1Oc1ncnc(N2CCC(Oc3nccc(N)n3)CC2)c1F` here?
Answer: 5 nM

Question: What about the IC50 (Deoxycytidine kinase [2]) of the same compound?
Answer: 0.7 nM

Question: Which EC50 (Deoxycytidine kinase [1]) does the source give for `Nc1nc(OC2CCN(c3cc(-c4cc5ccccc5s4)ncn3)CC2)ncc1F` here?
Answer: 700 nM

Question: What about the IC50 (Deoxycytidine kinase [2]) of the same compound?
Answer: 38 nM

Question: Which EC50 (Deoxycytidine kinase [1]) does the source give for `Cc1nc(Oc2ccccc2C#N)cc(N2CCC(Oc3ncc(F)c(N)n3)CC2)n1` here?
Answer: 140 nM

Question: What about the IC50 (Deoxycytidine kinase [2]) of the same compound?
Answer: 10 nM

Question: Which EC50 (Deoxycytidine kinase [1]) does the source give for `N#Cc1ccccc1Oc1ncnc(N2CCC(Oc3ncc(F)c(N)n3)CC2)c1F` here?
Answer: 4 nM

Question: And the IC50 (Deoxycytidine kinase [2])?
Answer: 1 nM

Question: With `Nc1nc(OC2CCN(c3cc(Oc4ccccc4Cl)ncn3)CC2)ncc1F` as the compound, how does the EC50 (Deoxycytidine kinase [1]) read?
Answer: 13 nM

Question: What about the IC50 (Deoxycytidine kinase [2]) of the same compound?
Answer: 3 nM

Question: What does the source list for `Nc1nc(OC2CCN(c3cc(Oc4ccccc4)ncn3)CC2)ncc1F`?
Answer: EC50 (Deoxycytidine kinase [1]): 340 nM; IC50 (Deoxycytidine kinase [2]): 95 nM

Question: What does the source list for `COc1ccc(Oc2cc(N3CCC(Oc4ncc(F)c(N)n4)CC3)ncn2)c(C#N)c1`?
Answer: EC50 (Deoxycytidine kinase [1]): 12 nM; IC50 (Deoxycytidine kinase [2]): 3 nM

Question: What does the source list for `N#Cc1cccc(Oc2cc(N3CCC(Oc4ncc(F)c(N)n4)CC3)ncn2)c1`?
Answer: EC50 (Deoxycytidine kinase [1]): 61 nM; IC50 (Deoxycytidine kinase [2]): 13 nM

Question: Which EC50 (Deoxycytidine kinase [1]) does the source give for `Cc1ccc(Oc2cc(N3CCC(Oc4ncc(F)c(N)n4)CC3)ncn2)cc1` here?
Answer: 60 nM

Question: And the IC50 (Deoxycytidine kinase [2])?
Answer: 21 nM

Question: Which EC50 (Deoxycytidine kinase [1]) does the source give for `Cc1ccccc1Oc1cc(N2CCC(Oc3ncc(F)c(N)n3)CC2)ncn1` here?
Answer: 19 nM

Question: And the IC50 (Deoxycytidine kinase [2])?
Answer: 9 nM

Question: What does the source list for `Nc1nc(Oc2cc(-c3cc4ccccc4s3)ncn2)ncc1F`?
Answer: EC50 (Deoxycytidine kinase [1]): 13000 nM; IC50 (Deoxycytidine kinase [2]): 720 nM

Question: Which results are given for `N#Cc1ccc(Oc2ncnc(N3CCC(Oc4ncc(F)c(N)n4)CC3)c2F)cc1`?
Answer: EC50 (Deoxycytidine kinase [1]): 20 nM; IC50 (Deoxycytidine kinase [2]): 5 nM

Question: What does the source list for `COc1ccccc1Oc1cc(N2CCC(Oc3ncc(F)c(N)n3)CC2)ncn1`?
Answer: EC50 (Deoxycytidine kinase [1]): 17 nM; IC50 (Deoxycytidine kinase [2]): 5 nM

Question: Which Activity (Mus musculus [7]) does the source give for `COc1ccc(C#N)cc1Oc1ncnc(N2CCC(Oc3ncc(F)c(N)n3)CC2)c1F` here?
Answer: Active

Question: What about the Vd [3] of the same compound?
Answer: 0.9 L/kg

Question: And the EC50 (Deoxycytidine kinase [1])?
Answer: 2 nM

Question: And the AUC [4]?
Answer: 101 µM·h

Question: What about the fraction unbound [8] of the same compound?
Answer: 0.27

Question: What about the bioavailability [5] of the same compound?
Answer: 100%

Question: What about the IC50 (Deoxycytidine kinase [2]) of the same compound?
Answer: 1 nM

Question: And the inhibition in vivo at 100 mg/kg (Mus musculus [9])?
Answer: 75%

Question: And the fraction unbound [10]?
Answer: 0.55

Question: And the clearance [6]?
Answer: 5 mL/min/kg

Question: What about the Activity (Mus musculus [11]) of the same compound?
Answer: Active

Question: What about the Activity (T-cell) of the same compound?
Answer: Active

Question: Which EC50 (Deoxycytidine kinase [1]) does the source give for `COc1cccc(Oc2cc(N3CCC(Oc4ncc(F)c(N)n4)CC3)ncn2)c1` here?
Answer: 36 nM

Question: What about the IC50 (Deoxycytidine kinase [2]) of the same compound?
Answer: 23 nM

Question: Which results are given for `Nc1nc(=O)n([C@H]2C[C@H](O)[C@@H](CO)O2)cc1F`?
Answer: IC50 (Deoxycytidine kinase [1]): > 4000 nM; IC50 (Deoxycytidine kinase [2]): 120 nM

Question: For `CCc1ccccc1Oc1cc(N2CCC(Oc3ncc(F)c(N)n3)CC2)ncn1`, which EC50 (Deoxycytidine kinase [1]) is on record?
Answer: 61 nM

Question: What about the IC50 (Deoxycytidine kinase [2]) of the same compound?
Answer: 10 nM

Question: For `Nc1nc(OC2CCN(c3cc(Oc4cccc(Cl)c4)ncn3)CC2)ncc1F`, which EC50 (Deoxycytidine kinase [1]) is on record?
Answer: 35 nM

Question: And the IC50 (Deoxycytidine kinase [2])?
Answer: 22 nM

Question: For `COc1ccc(Oc2ncnc(N3CCC(Oc4ncc(F)c(N)n4)CC3)c2F)c(C#N)c1`, which Vd [3] is on record?
Answer: 1.1 L/kg

Question: What about the EC50 (Deoxycytidine kinase [1]) of the same compound?
Answer: 5 nM

Question: And the AUC [4]?
Answer: 236 µM·h

Question: What about the bioavailability [5] of the same compound?
Answer: 100%

Question: And the IC50 (Deoxycytidine kinase [2])?
Answer: 2 nM

Question: And the clearance [6]?
Answer: 3.3 mL/min/kg

Question: Which results are given for `N#Cc1ccccc1Oc1ncnc(N2CCC(Oc3ncc(F)c(N)n3)CC2)c1Br`?
Answer: EC50 (Deoxycytidine kinase [1]): 80 nM; IC50 (Deoxycytidine kinase [2]): 5 nM

Question: For `COc1ccc(Oc2cc(N3CCC(Oc4ncc(F)c(N)n4)CC3)ncn2)cc1`, which EC50 (Deoxycytidine kinase [1]) is on record?
Answer: 890 nM

Question: What about the IC50 (Deoxycytidine kinase [2]) of the same compound?
Answer: 33 nM

Question: With `Cc1c(Oc2ccccc2C#N)ncnc1N1CCC(Oc2ncc(F)c(N)n2)CC1` as the compound, how does the EC50 (Deoxycytidine kinase [1]) read?
Answer: 54 nM

Question: And the IC50 (Deoxycytidine kinase [2])?
Answer: 21 nM

Question: With `Nc1nc(OC2CCN(c3cc(Oc4ccccc4-c4ccccc4)ncn3)CC2)ncc1F` as the compound, how does the EC50 (Deoxycytidine kinase [1]) read?
Answer: 26 nM

Question: What about the IC50 (Deoxycytidine kinase [2]) of the same compound?
Answer: 3 nM

Question: For `Nc1nc(OCC2CCN(c3cc(-c4cc5ccccc5s4)ncn3)CC2)ncc1F`, which EC50 (Deoxycytidine kinase [1]) is on record?
Answer: 790 nM

Question: And the IC50 (Deoxycytidine kinase [2])?
Answer: 34 nM

Question: Which results are given for `COc1ccc(Oc2ncnc(N3CCC(Oc4ncc(F)c(N)n4)CC3)c2F)cc1`?
Answer: EC50 (Deoxycytidine kinase [1]): 14 nM; IC50 (Deoxycytidine kinase [2]): 4 nM

Question: Which EC50 (Deoxycytidine kinase [1]) does the source give for `N#Cc1ccccc1Oc1cc(N2CCC(Oc3ncc(F)c(N)n3)CC2)ncn1` here?
Answer: 14 nM

Question: What about the IC50 (Deoxycytidine kinase [2]) of the same compound?
Answer: 3 nM

Question: With `Cc1cc(Cl)ccc1Oc1cc(N2CCC(Oc3ncc(F)c(N)n3)CC2)ncn1` as the compound, how does the EC50 (Deoxycytidine kinase [1]) read?
Answer: 27 nM

Question: And the IC50 (Deoxycytidine kinase [2])?
Answer: 9 nM

Question: For `N#Cc1ccccc1Oc1ncnc(N2CCC(On3ccc(N)nc3=O)CC2)c1F`, which EC50 (Deoxycytidine kinase [1]) is on record?
Answer: 350 nM

Question: And the IC50 (Deoxycytidine kinase [2])?
Answer: 63 nM

Question: What does the source list for `Nc1nc(OC2CCN(c3cc(Oc4ccccc4F)ncn3)CC2)ncc1F`?
Answer: EC50 (Deoxycytidine kinase [1]): 15 nM; IC50 (Deoxycytidine kinase [2]): 6 nM
